Columns and labels:
RS4;11 cells = experiment: RS4;11 cell proliferation assay (CellTiter-Glo); assay type: cell-based; details: Homo sapiens, 48 h compound treatment, read-out: RS4;11 (nM) CTG IC50
Description: (§1) Cell proliferation was measured using the CellTiter-Glo@ Luminescent Cell Viability Assay. The assay involved the addition of a single reagent (CellTiter-Glo® Reagent) directly to cells cultured in serum-supplemented medium. RS4;11 (ATC, CRL-1873) cells were cultured according to ATCC recommendations and were seeded at 50,000 cells per well. NCI-H1963 cells (ATCC CRL-5982) were cultured according to ATCC recommendations and seeded at 12,000 cells per well.
(§2) Each compound evaluated was prepared as a DMSO stock solution (10 mM). Compounds were tested in duplicate on each plate, with a 10-point serial dilution curve (1:3 dilution). Compound treatment (1.0 μL) was added from the compound dilution plate to the cell plate. The highest compound concentration was 10 μM (final), with a 0.1% final DMSO concentration. Plates were then incubated at 37° C., 5% CO2. After 48 h of compound treatment for RS4;11 or 72 h for NCI-H1963, cell plates were equilibrated at rt for approximately 30 mins. An equi-volume amount of CellTiter-Glo@ Reagent (40 μL) was added to each well. Plates were mixed for 2 mins on an orbital shaker to induce cell lysis and then incubated at RT for 10 mins to stabilize the luminescent signal. Luminescence was recorded using a Envision plate reader according to CellTiter-Glo protocol. IC50 of each compound was calculated using GraphPad Prism by nonlinear regression analysis.

NCI-H1963 cells = experiment: NCI-H1963 cell proliferation assay (CellTiter-Glo); assay type: cell-based; details: Homo sapiens, 72 h compound treatment, read-out: H1963 (nM) CTG IC50
Description: as §1, §2

Row | SMILES | IC50 (RS4;11 cells) [nM] | IC50 (NCI-H1963 cells) [nM]
1 | CC1(C)CCC(CN2CCN(c3ccc(C(=O)NS(=O)(=O)c4ccc(NCC5CCOCC5)c([N+](=O)[O-])c4)c(Oc4cnc5[nH]ccc5c4)c3)CC2)=C(c2ccc(Cl)cc2)C1 [ABT-199, reference compound] | < 100 | > 1000
2 | CC1(C)CCC(c2ccc(Cl)cc2)=C(CN2CCN(c3ccc(C(=O)NS(=O)(=O)c4ccc(N[C@H](CCN5CCOCC5)CSc5ccccc5)c(S(=O)(=O)C(F)(F)F)c4)cc3)CC2)C1 [ABT-263, reference compound] | < 100 | ≤ 500
3 | CC1(C)CCC(C23CC(Cl)(C2)C3)=C(CN2CCN(c3ccc(C(=O)NS(=O)(=O)c4ccc(N[C@H](CCN5CCOCC5)CSc5ccccc5)c(S(=O)(=O)C(F)(F)F)c4)cc3)CC2)C1 [Example 45, (R)-4-(4-((2-(3-Chlorobicyclo[1.1.1]pentan-1-yl)-5,5-dimethylcyclohex-1-en-1-yl)methyl)piperazin-1-yl)-N-((4-((4-morpholino-1-(phenylthio)butan-2-yl)amino)-3-((trifluoromethyl)sulfonyl)phenyl)sulfonyl)benzamide] | > 1000 | –
4 | CN(CCO)CC[C@H](CSc1ccccc1)Nc1ccc(S(=O)(=O)NC(=O)c2ccc(N3CCN(CC4=C(C56CC(C(F)(F)F)(C5)C6)CC(C)(C)CC4)CC3)cc2)cc1S(=O)(=O)C(F)(F)F [Example 51, (R)-4-(4-((4,4-dimethyl-2-(3-(trifluoromethyl)bicyclo[1.1.1]pentan-1-yl)cyclohex-1-en-1-yl)methyl)piperazin-1-yl)-N-((4-((4-((2-hydroxyethyl)(methyl)amino)-1-(phenylthio)butan-2-yl)amino)-3-((trifluoromethyl)sulfonyl)phenyl)sulfonyl)benzamide] | 100 to 1000 | –
5 | CC1(C)CCC(CN2CCN(c3ccc(C(=O)NS(=O)(=O)c4ccc(N[C@H](CCN5CCOCC5)CSc5ccccc5)c(S(=O)(=O)C(F)(F)F)c4)cc3)CC2)=C(C23CC(C)(C2)C3)C1 [Example 52, (R)-4-(4-((4,4-Dimethyl-2-(3-methylbicyclo[1.1.1]pentan-1-yl)cyclohex-1-en-1-yl)methyl)piperazin-1-yl)-N-((4-((4-morpholino-1-(phenylthio)butan-2-yl)amino)-3-((trifluoromethyl)sulfonyl)phenyl)sulfonyl)benzamide] | 100 to 1000 | –
6 | CCC12CC(C3=C(CN4CCN(c5ccc(C(=O)NS(=O)(=O)c6ccc(N[C@H](CCN7CCOCC7)CSc7ccccc7)c(S(=O)(=O)C(F)(F)F)c6)cc5)CC4)CCC(C)(C)C3)(C1)C2 [Example 53, (R)-4-(4-((2-(3-Ethylbicyclo[1.1.1]pentan-1-yl)-4,4-dimethylcyclohex-1-en-1-yl)methyl)piperazin-1-yl)-N-((4-((4-morpholino-1-(phenylthio)butan-2-yl)amino)-3-((trifluoromethyl)sulfonyl)phenyl)sulfonyl)benzamide] | > 1000 | –
7 | CC1(C)CCC(CN2CCN(c3ccc(C(=O)NS(=O)(=O)c4ccc(N[C@H](CCN5CCOCC5)CSc5ccccc5)c(S(=O)(=O)C(F)(F)F)c4)cc3)CC2)=C(C23CC(C(F)(F)F)(C2)C3)C1 [Example 54, (R)-4-(4-((4,4-dimethyl-2-(3-(trifluoromethyl)bicyclo[1.1.1]pentan-1-yl)cyclohex-1-en-1-yl)methyl)piperazin-1-yl)-N-((4-((4-morpholino-1-(phenylthio)butan-2-yl)amino)-3-((trifluoromethyl)sulfonyl)phenyl)sulfonyl)benzamide] | > 1000 | –
8 | CC1(C)CCC(CN2CCN(c3ccc(C(=O)NS(=O)(=O)c4ccc(N[C@H](CCN5CCOCC5)CSc5ccccc5)c([N+](=O)[O-])c4)cc3)CC2)=C(C23CC(C)(C2)C3)C1 [Example 56, (R)-4-(4-((4,4-dimethyl-2-(3-methylbicyclo[1.1.1]pentan-1-yl)cyclohex-1-en-1-yl)methyl)piperazin-1-yl)-N-((4-((4-morpholino-1-(phenylthio)butan-2-yl)amino)-3-nitrophenyl)sulfonyl)benzamide] | > 1000 | 500 to 1000
9 | CCC12CC(C3=C(CN4CCN(c5ccc(C(=O)NS(=O)(=O)c6ccc(N[C@H](CCN7CCOCC7)CSc7ccccc7)c([N+](=O)[O-])c6)cc5)CC4)CCC(C)(C)C3)(C1)C2 [Example 57, (R)-4-(4-((2-(3-ethylbicyclo[1.1.1]pentan-1-yl)-4,4-dimethylcyclohex-1-en-1-yl)methyl)piperazin-1-yl)-N-((4-((4-morpholino-1-(phenylthio)butan-2-yl)amino)-3-nitrophenyl)sulfonyl)benzamide] | > 1000 | > 1000
10 | CC1(C)CCC(C23CC(C(F)F)(C2)C3)=C(CN2CCN(c3ccc(C(=O)NS(=O)(=O)c4ccc(N[C@H](CCN5CCC(O)CC5)CSc5ccccc5)c(S(=O)(=O)C(F)(F)F)c4)cc3)CC2)C1 [Example 65, (R)-4-(4-((2-(3-(difluoromethyl)bicyclo[1.1.1]pentan-1-yl)-5,5-dimethylcyclohex-1-en-1-yl)methyl)piperazin-1-yl)-N-((4-((4-(4-hydroxypiperidin-1-yl)-1-(phenylthio)butan-2-yl)amino)-3-((trifluoromethyl)sulfonyl)phenyl)sulfonyl)benzamide] | – | 500 to 1000
11 | CC1(C)CCC(CN2CCN(c3ccc(C(=O)NS(=O)(=O)c4ccc(N[C@H](CCN5CCC(O)CC5)CSc5ccccc5)c(S(=O)(=O)C(F)(F)F)c4)cc3)CC2)=C(C23CC(C)(C2)C3)C1 [Example 68, (R)-4-(4-((4,4-dimethyl-2-(3-methylbicyclo[1.1.1]pentan-1-yl)cyclohex-1-en-1-yl)methyl)piperazin-1-yl)-N-((4-((4-(4-hydroxypiperidin-1-yl)-1-(phenylthio)butan-2-yl)amino)-3-((trifluoromethyl)sulfonyl)phenyl)sulfonyl)benzamide] | 100 to 1000 | ≤ 500
12 | CC1(C)CCC(CN2CCN(c3ccc(C(=O)NS(=O)(=O)c4ccc(N[C@H](CCN5CCC(O)C5)CSc5ccccc5)c(S(=O)(=O)C(F)(F)F)c4)cc3)CC2)=C(C23CC(C(F)F)(C2)C3)C1 (stereo partly drawn) [Example 71] | – | 500 to 1000
13 | O=C(NS(=O)(=O)c1ccc(NCC2CCOCC2)c([N+](=O)[O-])c1)c1ccc(N2CCN(CC3=C(C45CC(Cl)(C4)C5)CCCC3)CC2)cc1Oc1cnc2[nH]ccc2c1 [Example 72, 2-((1H-pyrrolo[2,3-b]pyridin-5-yl)oxy)-4-(4-((2-(3-chlorobicyclo[1.1.1]pentan-1-yl)cyclohex-1-en-1-yl)methyl)piperazin-1-yl)-N-((3-nitro-4-(((tetrahydro-2H-pyran-4-yl)methyl)amino)phenyl)sulfonyl)benzamide] | > 1000 | –

Source: US11344546B2, “Benzamide compounds” (Recurium IP Holdings, LLC, priority 2018, dated 2022)
